Measured values as given in ChEMBL document CHEMBL3822387 (Bioorg Med Chem, 2016).
Active and inactive are the calls of the source. No cut-off for these calls is given here.

Assays:
Cholinesterase [1] = target: Cholinesterase (Equus caballus, UniProt P81908)
Description: Inhibition of equine BCHE preincubated for 6 mins followed by addition of S-butyrylcholine iodide as substrate by Ellman's method

Acetylcholinesterase [2] = target: Acetylcholinesterase (Electrophorus electricus, UniProt O42275)
Description: Inhibition of electric eel ACHE preincubated for 6 mins followed by addition of acetylcholine iodide as substrate by Ellman's method

PC-12 [3] = experiment: Neuroprotective activity against H2O2-induced damage in rat PC12 cells assessed as cell viability at 10 uM preincubated for 2 hrs followed by H2O2 addition for 24 hrs by MTT assay; type: functional, cell-based
[4] = Cytotoxicity against rat PC12 cells assessed as reduction in cell viability at 1 to 50 uM measured after 24 hrs by MTT assay; type: cell-based; conditions: pc-12, 24 h
PC-12 [5] = experiment: Neuroprotective activity against H2O2-induced damage in rat PC12 cells assessed as cell viability at 1 to 10 uM preincubated for 2 hrs followed by H2O2 addition for 24 hrs by MTT assay; type: functional, cell-based
in vitro = conditions: PAMPA
Cholinesterase [6] = target: T1, Cholinesterase (Homo sapiens, UniProt P06276)
Description: Inhibition of human serum BCHE preincubated for 6 mins followed by addition of S-butyrylcholine iodide as substrate by Ellman's method

Acetylcholinesterase [7] = target: T2, Acetylcholinesterase (Homo sapiens, UniProt P22303)
Description: Inhibition of human erythrocyte ACHE preincubated for 6 mins followed by addition of acetylcholine iodide as substrate by Ellman's method

[8] = Metal chelating activity of the compound assessed as compound-Cu2+ complex formation by measuring bathochromic shift by UV-vis spectroscopy; type: physicochemical
Cholinesterase [9] = target: T1, Cholinesterase; experiment: Competitive inhibition of BCHE (unknown origin) using […] as substrate by Line weaver-Burk reciprocal plot analysis
[10] = Metal chelating activity of the compound assessed as compound-Fe2+ complex formation by measuring maximum absorption wavelength range by UV-vis spectroscopy (reference value: 212 nm); type: physicochemical
[11] = Metal chelating activity of the compound assessed as compound-Zn2+ complex formation by UV-vis spectroscopy by measuring maximum absorption wavelength range by UV-vis spectroscopy (reference value: 212 nm); type: physicochemical
[12] = Metal chelating activity of the compound assessed as compound-Fe3+ complex formation by UV-vis spectroscopy by measuring maximum absorption wavelength range by UV-vis spectroscopy (reference value: 212 nm); type: physicochemical
Acetylcholinesterase [13] = target: T2, Acetylcholinesterase; experiment: Mixed-type inhibition of ACHE (unknown origin) using acetylcholine iodide as substrate by Line weaver-Burk reciprocal plot analysis

T2 sequence (P22303 whole entry): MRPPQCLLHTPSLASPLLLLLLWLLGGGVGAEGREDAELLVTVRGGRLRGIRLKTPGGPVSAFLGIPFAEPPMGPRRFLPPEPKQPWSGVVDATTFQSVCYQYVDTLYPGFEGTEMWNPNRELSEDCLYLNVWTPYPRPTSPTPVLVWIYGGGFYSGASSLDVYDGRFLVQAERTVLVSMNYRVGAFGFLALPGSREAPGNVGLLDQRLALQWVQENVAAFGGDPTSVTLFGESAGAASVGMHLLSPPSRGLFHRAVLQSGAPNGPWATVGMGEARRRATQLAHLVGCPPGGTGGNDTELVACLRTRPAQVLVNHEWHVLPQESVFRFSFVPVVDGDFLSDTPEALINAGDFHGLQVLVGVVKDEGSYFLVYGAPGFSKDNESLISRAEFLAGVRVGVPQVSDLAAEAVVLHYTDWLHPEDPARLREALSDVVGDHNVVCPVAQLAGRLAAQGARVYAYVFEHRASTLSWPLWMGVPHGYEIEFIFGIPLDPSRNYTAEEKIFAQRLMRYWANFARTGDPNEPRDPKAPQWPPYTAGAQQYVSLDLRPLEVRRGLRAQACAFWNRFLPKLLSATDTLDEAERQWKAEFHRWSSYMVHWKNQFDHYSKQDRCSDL
Sequence of Acetylcholinesterase (Electrophorus electricus, UniProt O42275) (O42275 whole entry): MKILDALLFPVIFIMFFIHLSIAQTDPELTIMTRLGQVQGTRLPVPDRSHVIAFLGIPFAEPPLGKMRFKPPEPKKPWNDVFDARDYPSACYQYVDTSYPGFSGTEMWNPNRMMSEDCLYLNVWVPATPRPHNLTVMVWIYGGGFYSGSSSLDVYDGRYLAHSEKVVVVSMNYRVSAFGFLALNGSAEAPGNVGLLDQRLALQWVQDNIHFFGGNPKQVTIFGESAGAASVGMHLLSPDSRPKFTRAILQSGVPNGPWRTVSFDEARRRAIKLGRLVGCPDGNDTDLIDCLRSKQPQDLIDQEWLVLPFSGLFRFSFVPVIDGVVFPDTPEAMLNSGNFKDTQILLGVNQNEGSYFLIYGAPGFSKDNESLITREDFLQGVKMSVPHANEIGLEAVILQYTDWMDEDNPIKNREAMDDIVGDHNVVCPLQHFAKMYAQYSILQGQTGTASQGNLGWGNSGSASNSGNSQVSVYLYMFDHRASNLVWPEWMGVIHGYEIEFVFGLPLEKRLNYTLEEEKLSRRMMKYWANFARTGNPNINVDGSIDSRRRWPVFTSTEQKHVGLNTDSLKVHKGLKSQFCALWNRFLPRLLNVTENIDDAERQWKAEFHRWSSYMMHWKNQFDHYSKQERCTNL
T1 sequence (P06276 whole entry): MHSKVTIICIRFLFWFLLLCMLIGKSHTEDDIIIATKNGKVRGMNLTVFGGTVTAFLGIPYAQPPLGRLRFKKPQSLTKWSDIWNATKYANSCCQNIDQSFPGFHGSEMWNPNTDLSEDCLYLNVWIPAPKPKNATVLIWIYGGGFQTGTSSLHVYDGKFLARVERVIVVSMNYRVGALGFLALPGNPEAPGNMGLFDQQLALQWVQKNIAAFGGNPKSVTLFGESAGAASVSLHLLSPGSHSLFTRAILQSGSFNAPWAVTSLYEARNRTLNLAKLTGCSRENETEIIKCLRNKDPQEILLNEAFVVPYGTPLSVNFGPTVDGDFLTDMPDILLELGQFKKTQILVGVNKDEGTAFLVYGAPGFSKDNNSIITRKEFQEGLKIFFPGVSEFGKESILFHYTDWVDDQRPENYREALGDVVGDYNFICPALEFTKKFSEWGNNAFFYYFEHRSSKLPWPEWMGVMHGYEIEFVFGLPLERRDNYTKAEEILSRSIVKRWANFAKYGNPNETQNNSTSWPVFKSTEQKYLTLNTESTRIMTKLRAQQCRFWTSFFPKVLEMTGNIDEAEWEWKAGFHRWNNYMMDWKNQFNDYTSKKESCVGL
Sequence of Cholinesterase (Equus caballus, UniProt P81908) (P81908 whole entry): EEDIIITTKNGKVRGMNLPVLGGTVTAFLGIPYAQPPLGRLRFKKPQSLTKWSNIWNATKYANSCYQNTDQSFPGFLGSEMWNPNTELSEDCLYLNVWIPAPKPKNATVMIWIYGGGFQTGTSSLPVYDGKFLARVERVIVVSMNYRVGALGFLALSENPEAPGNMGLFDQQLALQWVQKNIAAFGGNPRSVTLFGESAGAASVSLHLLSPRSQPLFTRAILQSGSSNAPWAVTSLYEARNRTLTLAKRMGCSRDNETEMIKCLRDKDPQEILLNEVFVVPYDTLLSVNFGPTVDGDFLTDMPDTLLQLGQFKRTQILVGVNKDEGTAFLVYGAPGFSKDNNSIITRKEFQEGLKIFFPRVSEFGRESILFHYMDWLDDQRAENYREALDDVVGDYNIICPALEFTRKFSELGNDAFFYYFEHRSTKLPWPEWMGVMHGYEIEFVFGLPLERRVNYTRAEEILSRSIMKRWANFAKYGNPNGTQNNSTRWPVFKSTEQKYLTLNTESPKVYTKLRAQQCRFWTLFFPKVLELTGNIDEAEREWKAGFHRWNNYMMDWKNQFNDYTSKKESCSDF

SMILES | IC50 (Cholinesterase [1]) [nM] | IC50 (Acetylcholinesterase [2]) [nM] | IC50 (Cholinesterase [6]) [nM] | IC50 (Acetylcholinesterase [7]) [nM] | other results
O=C(NCCc1c[nH]c2ccccc12)C1CCN(Cc2ccccc2[N+](=O)[O-])CC1 | 10800 | 31500 | – | – | –
Cc1c(C)c2c(c(C)c1O)CCC(C)(C(=O)O)O2 (centres undefined) | – | – | – | – | Activity (PC-12 [3]): Active
COc1ccc2[nH]cc(CCNC(=O)CC3CCN(Cc4ccccc4C)CC3)c2c1 | 1280 | 2200 | 1030 | 3600 | Activity [4]: Non-toxic; Activity (PC-12 [5]): Active; Papp at 50 ug/ml (in vitro): 10.9 ×10⁻⁶ cm/s
O=C(CC1CCN(Cc2ccccc2)CC1)NCCc1c[nH]c2ccccc12 | 1100 | 2100 | 950 | 3800 | Papp at 50 ug/ml (in vitro): 7.4 ×10⁻⁶ cm/s
COc1ccc2[nH]cc(CCNC(=O)C3CCN(Cc4ccccc4)CC3)c2c1 | 8210 | 9270 | 2210 | 12200 | –
O=C(CCc1c[nH]c2ccccc12)NC1CCN(Cc2ccccc2)CC1 | 370 | 5750 | 120 | 8320 | Activity [4]: Non-toxic
Cc1ccccc1CN1CCC(C(=O)NCCc2c[nH]c3ccccc23)CC1 | 1500 | 2250 | 400 | 3560 | Activity [4]: Non-toxic; Activity (PC-12 [5]): Active; Papp at 50 ug/ml (in vitro): 8.9 ×10⁻⁶ cm/s
Cc1cccc(CN2CCC(CC(=O)NCCc3c[nH]c4ccccc34)CC2)c1 | 950 | 1630 | 850 | 4630 | –
O=C(CC1CCN(Cc2ccc(Cl)cc2)CC1)NCCc1c[nH]c2ccccc12 | 5290 | 22400 | – | – | –
COc1ccc2[nH]cc(CCNC(=O)CC3CCN(Cc4ccc(C)cc4)CC3)c2c1 | 1480 | 5260 | 1060 | 9260 | –
COc1ccc2[nH]cc(CCNC(=O)CC3CCN(Cc4ccccc4Cl)CC3)c2c1 | 1280 | 16800 | – | – | –
Cc1ccccc1CN1CCC(CC(=O)NCCc2c[nH]c3ccccc23)CC1 | 1490 | 940 | 1420 | 1540 | Activity [4]: Non-toxic; Activity (PC-12 [5]): Active; Papp at 50 ug/ml (in vitro): 6.91 ×10⁻⁶ cm/s
O=C(CCc1c[nH]c2ccccc12)NCCC1CCN(Cc2ccccc2)CC1 | 73 | 193 | 56 | 273 | Activity [4]: Non-toxic; Activity [8]: 219 nm; Activity (PC-12 [5]): Active; inhibition (Cholinesterase [9]): Active; Activity [10]: 216 nm; Papp at 50 ug/ml (in vitro): 6.98 ×10⁻⁶ cm/s; Activity [11]: 214 nm; Activity [12]: 216 nm; inhibition (Acetylcholinesterase [13]): Active
CC(=O)[C@H]1CC[C@H]2[C@@H]3CCC4=CC(=O)CC[C@]4(C)[C@H]3CC[C@]12C [PROGESTERONE] | – | – | – | – | Papp at 50 ug/ml (in vitro): 5.62 ×10⁻⁶ cm/s
COc1ccc2[nH]cc(CCNC(C)=O)c2c1 | – | – | – | – | Activity (PC-12 [3]): Active
O=C(CC1CCN(Cc2ccccc2Cl)CC1)NCCc1c[nH]c2ccccc12 | 1490 | 28200 | – | – | –
COc1ccc2[nH]cc(CCNC(=O)CC3CCN(Cc4cccc(Cl)c4)CC3)c2c1 | 4400 | 9500 | – | – | –
COc1ccc2[nH]cc(CCNC(=O)CC3CCN(Cc4cccc(C)c4)CC3)c2c1 | 4400 | 9500 | 1400 | 13500 | –
COc1ccc2[nH]cc(CCNC(=O)CC3CCN(Cc4ccc(Cl)cc4)CC3)c2c1 | 6480 | 20600 | – | – | –
O=C(NCCc1c[nH]c2ccccc12)C1CCN(Cc2ccccc2)CC1 | 3300 | 5550 | 2000 | 7850 | –
Cc1ccc(CN2CCC(CC(=O)NCCc3c[nH]c4ccccc34)CC2)cc1 | 1290 | 1940 | 290 | 4940 | –
O=C(CC1CCN(Cc2cccc(Cl)c2)CC1)NCCc1c[nH]c2ccccc12 | 950 | 1630 | – | – | –
COc1ccc2[nH]cc(CCNC(=O)C3CCN(Cc4ccccc4C)CC3)c2c1 | 3210 | 4420 | 3010 | 7420 | Activity [4]: Non-toxic; Activity (PC-12 [5]): Active; Papp at 50 ug/ml (in vitro): 9.37 ×10⁻⁶ cm/s
COc1ccc2[nH]cc(CCNC(=O)C3CCN(Cc4ccccc4[N+](=O)[O-])CC3)c2c1 | 28500 | 54200 | – | – | –
